Results as given in patent US11033535B2, “Oxadiazoles and thiadiazoles as TGF-β inhibitors” (Southern Research Institute, priority 2017, dated 2021).
pIC50: −log10 of the molar value.

Target: (Homo sapiens, UniProt P07996)
Test: Secondary Assay, inhibitory activity of thiadiazole and oxadiazole analogs as TGF-beta inhibitors
Format: biochemical
Settings: Table I
Experimental: A summary of the inhibitory activity of representative thiadiazole analogs (Tables i and ii) and oxadiazole analogs (Table ii) is shown below.
For initial screening, an ELISA-based screening assay was used in which purified human platelet TSP-1 was incubated with compounds and then incubated with recombinant latent TGF-β1 (purchased from R&D Systems). Activity is measured in a commercially available ELISA which detects only active TGF-β (R &D Systems). Activity in the presence of compounds is compared to activity in TSP-1+latent TGF-β samples without inhibitory compounds (Lu et al. (2016) Am J Pathol 186:678-690).
To specifically assess activity of compounds in liver cell specific assays, two different assays were used. In the first, human hepatic stellate cells were incubated overnight in low serum media to condition the media with secreted latent TGF-β. Purified TSP1 either pre-incubated with compounds or not will be added to cultures and then conditioned media harvested to assess TGF-β biological activity using the R&D Systems ELISA as above. Hepatic stellate cells will be purchased from commercial sources. Although hepatic stellate cells are the primary drivers of liver fibrosis, conditions which drive liver fibrosis can induce hepatocyte TSP-1 expression which can then have paracrine effects on controlling TGF-β activation in hepatic stellate cells. Furthermore, TGF-β can negatively impact hepatocyte regeneration following injury. Therefore, the ability of compounds to block TSP-1 activation of latent TGF-β will also be assessed in cultured primary human hepatocytes following the protocol described for the hepatic stellate cells. Similar approaches have successfully been used to screen compounds which inhibit human myeloma cell derived latent TGF-β activation by TSP-1 (Lu et al. (2016) Am J Pathol 186:678-690).

(Homo sapiens, UniProt P07996), sequence (P07996 whole entry): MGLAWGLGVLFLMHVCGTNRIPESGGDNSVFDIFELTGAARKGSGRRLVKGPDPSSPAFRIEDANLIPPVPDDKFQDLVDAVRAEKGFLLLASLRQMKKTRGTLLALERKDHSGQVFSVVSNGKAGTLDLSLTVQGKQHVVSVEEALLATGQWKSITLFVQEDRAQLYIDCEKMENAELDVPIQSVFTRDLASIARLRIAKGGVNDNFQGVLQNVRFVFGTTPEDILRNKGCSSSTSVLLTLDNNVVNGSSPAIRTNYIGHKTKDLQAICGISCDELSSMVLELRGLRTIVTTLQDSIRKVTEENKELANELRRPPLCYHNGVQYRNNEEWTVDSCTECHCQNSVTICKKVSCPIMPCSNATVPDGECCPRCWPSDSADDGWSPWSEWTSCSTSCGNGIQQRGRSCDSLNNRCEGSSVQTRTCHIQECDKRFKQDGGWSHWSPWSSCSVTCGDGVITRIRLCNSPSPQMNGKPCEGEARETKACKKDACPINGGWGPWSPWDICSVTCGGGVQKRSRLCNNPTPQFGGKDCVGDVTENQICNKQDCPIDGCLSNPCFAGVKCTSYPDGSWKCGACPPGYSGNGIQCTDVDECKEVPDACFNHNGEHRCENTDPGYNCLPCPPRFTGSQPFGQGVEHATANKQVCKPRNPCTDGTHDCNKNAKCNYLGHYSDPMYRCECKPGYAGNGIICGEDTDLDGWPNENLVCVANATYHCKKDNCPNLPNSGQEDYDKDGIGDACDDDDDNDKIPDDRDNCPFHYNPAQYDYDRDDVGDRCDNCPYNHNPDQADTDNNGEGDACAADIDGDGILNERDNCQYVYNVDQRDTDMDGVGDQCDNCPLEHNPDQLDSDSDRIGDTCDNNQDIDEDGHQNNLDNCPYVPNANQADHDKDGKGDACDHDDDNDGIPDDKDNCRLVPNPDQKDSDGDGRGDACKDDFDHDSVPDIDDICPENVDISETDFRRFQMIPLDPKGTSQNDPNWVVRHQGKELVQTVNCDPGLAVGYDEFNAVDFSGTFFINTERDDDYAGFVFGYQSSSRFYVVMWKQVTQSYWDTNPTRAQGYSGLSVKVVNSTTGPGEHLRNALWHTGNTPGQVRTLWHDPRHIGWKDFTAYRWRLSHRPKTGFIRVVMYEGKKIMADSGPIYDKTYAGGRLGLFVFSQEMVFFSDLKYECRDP

| pIC50 | SMILES |
| --- | --- |
| 8.70 | CC(=O)N[C@@H](Cc1ccc(CN(C)C)cc1)c1nnc(-c2cccc(OC(F)(F)F)c2)s1 [Compound 42320, N-(2-(4-((dimethylamino)methyl)phenyl)-1-(5-(3-(trifluoromethoxy)phenyl)-1,3,4-thiadiazol-2-yl)ethyl)acetamide] |
| 7.29 | CNCc1ccc(C[C@H](NC(C)=O)c2nnc(-c3cccc(OC(F)(F)F)c3)s2)cc1 [Compound 42140, N-(2-(4-((methylamino)methyl)phenyl)-1-(5-(3-(trifluoromethoxy)phenyl)-1,3,4-thiadiazol-2-yl)ethyl)acetamide] |
